Test results published in patent US9944618B2, “Inhibiting neurotransmitter reuptake” (Mayo Foundation for Medical Education and Research, priority 2013, dated 2018).
Where two headings read alike, the source gives them in different places.

Experiments:
[1] = biological target: human norepinephrine transporter (Homo sapiens (Human), UniProt P23975); assay: Human NET (norepinephrine transporter) uptake assay; type: cell-based; conditions: read-out: hNET Ki
Summary of the method: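 HEK293F cells transfected with human NET were thawed, plated at about 60,000 cells/well and held at 37 °C for at least 3 h. Compounds came from 10 mM DMSO stocks, with nomifensine as control, in 1×HBSS/0.02 M HEPES. Uptake was followed with a neurotransmitter transporter dye, dosed as % of vendor reconstitution, in triplicate.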

[2] = biological target: human dopamine transporter (Homo sapiens (Human), UniProt Q01959); assay: Human DAT (dopamine transporter) uptake assay; type: cell-based; conditions: read-out: hDAT Ki
Sequence of human dopamine transporter (Q01959 whole entry): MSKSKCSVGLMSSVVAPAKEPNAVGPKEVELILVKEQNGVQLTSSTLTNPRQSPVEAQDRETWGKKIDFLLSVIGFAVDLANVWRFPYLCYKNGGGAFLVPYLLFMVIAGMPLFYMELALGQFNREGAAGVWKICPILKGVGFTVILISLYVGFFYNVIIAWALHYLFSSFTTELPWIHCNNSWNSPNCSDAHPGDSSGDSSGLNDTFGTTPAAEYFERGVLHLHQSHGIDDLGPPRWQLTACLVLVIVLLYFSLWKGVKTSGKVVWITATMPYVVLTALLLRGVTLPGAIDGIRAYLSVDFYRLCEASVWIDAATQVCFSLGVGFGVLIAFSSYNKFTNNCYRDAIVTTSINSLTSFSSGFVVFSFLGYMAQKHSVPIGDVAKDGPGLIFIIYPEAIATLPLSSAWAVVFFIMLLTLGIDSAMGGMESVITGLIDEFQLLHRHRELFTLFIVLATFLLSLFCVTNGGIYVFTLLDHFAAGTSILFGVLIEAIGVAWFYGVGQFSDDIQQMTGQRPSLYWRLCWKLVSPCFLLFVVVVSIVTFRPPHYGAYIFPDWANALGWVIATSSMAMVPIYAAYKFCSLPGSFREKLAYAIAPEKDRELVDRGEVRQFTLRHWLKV
Summary of the method: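 Uptake inhibition was measured in HEK293F cells transfected with human DAT, plated at ~60,000 cells/well and settled ≥3 h at 37 °C. Compounds came from 10 mM DMSO stocks. Read-out was uptake of a fluorescent neurotransmitter transporter dye in HBSS with 0.02 M HEPES, with dye level given as % of vendor reconstitution; n=3.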

[3] = biological target: human serotonin transporter (Homo sapiens (Human), UniProt P31645); assay: Human SERT (serotonin transporter) uptake assay; type: cell-based; conditions: read-out: hSERT Ki
Sequence of human serotonin transporter (P31645 whole entry): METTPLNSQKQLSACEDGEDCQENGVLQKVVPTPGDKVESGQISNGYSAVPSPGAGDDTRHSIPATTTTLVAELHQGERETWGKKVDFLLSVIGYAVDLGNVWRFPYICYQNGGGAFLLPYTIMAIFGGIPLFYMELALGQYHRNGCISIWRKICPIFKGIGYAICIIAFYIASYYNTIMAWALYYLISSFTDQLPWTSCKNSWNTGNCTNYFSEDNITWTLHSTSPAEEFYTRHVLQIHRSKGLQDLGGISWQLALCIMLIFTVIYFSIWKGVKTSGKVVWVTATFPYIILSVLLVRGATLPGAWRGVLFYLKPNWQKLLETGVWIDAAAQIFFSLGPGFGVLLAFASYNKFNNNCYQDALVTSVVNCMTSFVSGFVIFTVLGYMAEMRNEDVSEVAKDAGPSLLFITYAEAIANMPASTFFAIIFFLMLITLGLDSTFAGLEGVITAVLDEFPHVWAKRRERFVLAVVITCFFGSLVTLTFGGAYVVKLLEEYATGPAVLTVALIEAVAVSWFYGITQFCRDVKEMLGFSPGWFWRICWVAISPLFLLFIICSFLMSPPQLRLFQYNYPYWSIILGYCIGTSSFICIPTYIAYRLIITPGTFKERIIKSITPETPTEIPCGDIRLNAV
Summary of the method: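 HEK293F cells transfected with human SERT, about 60,000 per well, settled for ≥3 h at 37° C before compound addition. Uptake was followed with a fluorescent transporter dye in HBSS with 0.02 M HEPES. Background came from 10 μM fluoxetine, nomifensine was the control, n=3.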

hERG = hERG (Homo sapiens (Human), UniProt Q12809); assay: Human ERG (hERG) assay, hERG currents in hERG-expressing CHO cells; type: cell-based; conditions: hERG-expressing CHO cells
Sequence of hERG (Q12809 whole entry): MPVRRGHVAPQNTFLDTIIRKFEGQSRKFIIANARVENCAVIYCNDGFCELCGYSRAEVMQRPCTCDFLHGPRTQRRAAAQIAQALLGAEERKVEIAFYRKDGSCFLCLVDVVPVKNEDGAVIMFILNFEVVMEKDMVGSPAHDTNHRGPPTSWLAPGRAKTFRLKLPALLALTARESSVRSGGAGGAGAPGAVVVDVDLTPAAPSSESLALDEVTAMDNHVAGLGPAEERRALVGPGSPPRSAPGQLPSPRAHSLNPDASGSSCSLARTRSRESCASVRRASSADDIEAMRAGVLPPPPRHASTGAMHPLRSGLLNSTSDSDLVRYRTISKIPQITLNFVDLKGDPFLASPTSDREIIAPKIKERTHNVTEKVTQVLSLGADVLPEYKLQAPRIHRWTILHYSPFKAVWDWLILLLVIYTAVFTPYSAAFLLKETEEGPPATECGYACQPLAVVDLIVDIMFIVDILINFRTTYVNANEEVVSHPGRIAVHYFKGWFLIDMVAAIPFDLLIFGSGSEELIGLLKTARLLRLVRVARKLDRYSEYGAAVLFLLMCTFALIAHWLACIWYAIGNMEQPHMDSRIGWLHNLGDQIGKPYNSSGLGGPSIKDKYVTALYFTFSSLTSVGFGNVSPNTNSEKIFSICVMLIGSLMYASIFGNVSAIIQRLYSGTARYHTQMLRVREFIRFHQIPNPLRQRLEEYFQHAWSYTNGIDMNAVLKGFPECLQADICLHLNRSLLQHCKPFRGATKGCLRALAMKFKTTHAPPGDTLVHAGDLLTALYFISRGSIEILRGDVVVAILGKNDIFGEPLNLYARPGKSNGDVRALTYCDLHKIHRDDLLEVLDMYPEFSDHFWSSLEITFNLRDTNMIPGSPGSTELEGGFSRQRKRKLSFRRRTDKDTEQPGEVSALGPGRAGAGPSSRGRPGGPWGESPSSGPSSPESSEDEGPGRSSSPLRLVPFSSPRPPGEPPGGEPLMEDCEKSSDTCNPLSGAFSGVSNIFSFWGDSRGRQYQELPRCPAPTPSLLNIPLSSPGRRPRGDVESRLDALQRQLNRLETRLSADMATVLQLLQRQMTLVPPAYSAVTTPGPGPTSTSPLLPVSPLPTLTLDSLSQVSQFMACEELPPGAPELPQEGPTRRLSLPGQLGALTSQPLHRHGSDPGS
Excerpt: The voltage-dependent potassium channel encoded by the human ether-a-go-go-related gene (hERG) is believed to play a key role in repolarisation of the ventricular cardiac action potential. Changes in its activity, caused either by inherited mutations of the gene sequence or pharmacological modification, can lead to prolongation of action potential duration. This can lead to prolongation of the QT interval recorded in man on an electrocardiogram and to a potentially fatal cardiac arrhythmia known as Torsades de Pointes.
hERG currents were recorded from hERG-expressing CHO cells. The biophysical and pharmacological characterization of the hERG currents in these cells was performed.

CYP3A4 = CYP3A4 (Homo sapiens (Human), UniProt P08684); assay: Cytochrome P450 inhibition assay, recombinant CYP3A4 (BFC substrate); type: in vitro ADME; conditions: recombinant enzyme
Sequence of CYP3A4 (P08684 whole entry): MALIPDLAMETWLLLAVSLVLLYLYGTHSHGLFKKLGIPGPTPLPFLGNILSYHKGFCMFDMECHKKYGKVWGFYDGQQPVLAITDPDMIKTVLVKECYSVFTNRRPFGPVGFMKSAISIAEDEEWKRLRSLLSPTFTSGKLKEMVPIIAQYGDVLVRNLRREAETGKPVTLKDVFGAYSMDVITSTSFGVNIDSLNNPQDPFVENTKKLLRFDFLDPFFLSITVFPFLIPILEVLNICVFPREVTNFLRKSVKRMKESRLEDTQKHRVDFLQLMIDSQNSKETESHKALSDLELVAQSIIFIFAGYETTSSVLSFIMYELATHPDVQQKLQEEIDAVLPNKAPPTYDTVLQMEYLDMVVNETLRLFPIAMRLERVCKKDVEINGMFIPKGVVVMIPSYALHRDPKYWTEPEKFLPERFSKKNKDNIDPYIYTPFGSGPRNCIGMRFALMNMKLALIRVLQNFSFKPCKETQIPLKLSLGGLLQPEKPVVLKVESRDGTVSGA
Protocol: (§1) Recombinant enzymes, 3A4 and 2D6, generated using the ABL yeast expression system were used. […] The assay mixture also included K2HPO4 (pH 7.4; conc. 0.1 M) and NADPH (conc. 1 mM). The incubation time was 30 minutes, and the reference inhibitor was A-naphthoflavone. For CYP2D6, the enzyme amount was 2 pmol per well, and the substrate (7-methoxy-4-(aminomethyl)-coumarin; MAMC) was used at 20 μM. The assay mixture also included K2HPO4 (pH 7.4; conc. 0.1 M) and NADPH (conc. 0.06 mM). The incubation time was 35 minutes, and the reference inhibitor was quinidine.
(§2) Briefly, 0.6 μL of serially diluted compound was added to 75 μL water. 10 μL of diluted compound in water was then added to each assay plate. 20 μL of a K2HPO4, enzyme, and substrate mixture was added. After 10 minutes of room temperature pre-incubation, 10 μL of NADPH was added, and the plates were placed at 37° C. for 30 or 35 minutes depending on the enzyme being tested. After the incubation was complete, 20 μL of 0.1% Tris/ACN was added to the plate. The plate was read on a FluorStar fluorescence plate reader.

CYP2D6 = CYP2D6 (Homo sapiens (Human), UniProt P10635); assay: Cytochrome P450 inhibition assay, recombinant CYP2D6 (MAMC substrate); type: in vitro ADME; conditions: recombinant enzyme
Sequence of CYP2D6 (P10635 whole entry): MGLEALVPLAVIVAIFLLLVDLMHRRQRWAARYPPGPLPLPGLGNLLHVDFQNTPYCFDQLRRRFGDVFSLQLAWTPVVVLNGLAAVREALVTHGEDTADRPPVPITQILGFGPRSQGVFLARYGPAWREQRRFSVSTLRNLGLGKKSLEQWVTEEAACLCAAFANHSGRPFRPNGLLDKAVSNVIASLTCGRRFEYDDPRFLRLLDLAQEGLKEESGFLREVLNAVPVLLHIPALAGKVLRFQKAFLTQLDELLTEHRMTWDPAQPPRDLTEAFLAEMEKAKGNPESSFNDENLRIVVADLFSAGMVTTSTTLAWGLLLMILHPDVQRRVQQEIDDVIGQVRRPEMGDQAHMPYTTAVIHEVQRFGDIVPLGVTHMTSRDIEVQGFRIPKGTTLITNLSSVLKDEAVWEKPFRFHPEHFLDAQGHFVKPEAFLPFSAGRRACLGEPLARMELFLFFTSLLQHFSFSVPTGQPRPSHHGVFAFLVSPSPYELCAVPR
Protocol: as §1, §2

[4] = pKa of basic centres (Table 1); type: physicochemical
[5] = first base, e.g., an aliphatic primary, secondary, or tertiary amine, read-out: pKa (Base 1)

Sequence of human norepinephrine transporter (P23975 whole entry): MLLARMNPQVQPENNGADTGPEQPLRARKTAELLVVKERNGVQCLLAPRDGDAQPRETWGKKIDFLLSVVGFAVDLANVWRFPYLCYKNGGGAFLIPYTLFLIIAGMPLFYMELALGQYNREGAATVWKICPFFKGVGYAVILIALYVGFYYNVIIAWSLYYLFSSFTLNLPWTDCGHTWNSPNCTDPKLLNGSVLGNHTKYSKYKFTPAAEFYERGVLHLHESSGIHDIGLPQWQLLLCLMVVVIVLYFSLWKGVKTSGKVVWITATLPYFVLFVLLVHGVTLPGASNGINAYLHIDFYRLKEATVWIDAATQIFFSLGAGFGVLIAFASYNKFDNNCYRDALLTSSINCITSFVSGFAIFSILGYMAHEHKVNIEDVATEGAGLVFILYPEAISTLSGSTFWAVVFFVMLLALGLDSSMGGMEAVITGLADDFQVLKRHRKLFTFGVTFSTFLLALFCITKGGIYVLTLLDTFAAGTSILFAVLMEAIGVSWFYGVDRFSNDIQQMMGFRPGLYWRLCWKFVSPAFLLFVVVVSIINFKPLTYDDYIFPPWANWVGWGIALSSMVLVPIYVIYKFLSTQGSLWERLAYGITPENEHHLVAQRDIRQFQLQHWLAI

| SMILES | Ki [1] [nM] | Ki [2] [nM] | Ki [3] [nM] | IC50 (hERG) [nM] | IC50 (CYP3A4) [nM] | IC50 (CYP2D6) [nM] | pKa [4, 5] | pKa ([4]; second base in the same molecule (if present), read-out: pKa (Base 2)) | pKa (Base 1) ([4]; first base, e.g., an aliphatic primary, secondary, or tertiary amine) |
| --- | --- | --- | --- | --- | --- | --- | --- | --- | --- |
| CNC[C@H](c1ccc2ccccc2c1)[C@H](OC)c1ccc2c(c1)OCO2 (racemic) [Compound 136] | 37.4 | 64.5 | 15.7 | 5400 | 3400 | 190 | 9.7 |  |  |
| NC[C@@H](c1ccc2ccccc2c1)C(O)c1ccncc1Cl (stereo partly drawn) [Compound 118] | 252 | 139 | 36.6 | 24000 | 20000 | 3900 | 8 |  |  |
| CNC[C@H](c1ccc(Cl)c(Cl)c1)[C@H](O)c1cccc(I)c1 (single isomer, unassigned) [Compound 151] | 20.4 | 31.4 | 45.2 | 3800 | 2100 | 130 | 9.4 |  |  |
| CNC[C@H](c1ccc2ccccc2c1)[C@H](O)c1ccccc1C [Compound 28] | 2.4 | 43.8 | 3.4 | 15000 | 9600 | 160 | 9.7 |  |  |
| CN(C)C[C@H](c1ccc2ccccc2c1)[C@H](N)c1ccccc1 [Compound 82] | 15.3 | 9.8 | 15.3 | 19000 | 20000 | 990 | 9 | 8.3 |  |
| CNC[C@H](c1ccc(Cl)c(Cl)c1)[C@H](O)c1cccc(OC)n1 [Compound 167] | 10.8 | 132 | 18.8 | 12000 | 20000 | 400 | 9.2 |  |  |
| CNC[C@H](c1ccc2ccccc2c1)[C@H](Cl)c1ccccc1 [Compound 146] | 9.3 | 144 | 10.1 | 15000 | 1300 | 92 | 9.5 |  |  |
| CNCC(Cc1ccccc1C)c1ccc2ccccc2c1 (stereo not drawn) [Compound 134] | 6 | 56.8 | 7.8 | 6200 | 9900 | 220 | 10.1 |  |  |
| CNC[C@@H](c1ccc(Cl)c(Cl)c1)[C@H](O)c1cccc(NC(C)=O)c1 [Compound 98] | 38.8 | 216 | 167 | 33000 | 20000 | 850 | 9.4 |  |  |
| CNC[C@H](c1ccc2ccccc2c1)[C@H](O)c1ccc2c(c1)OCCO2 [Compound 143] | 6.6 | 106 | 7.9 | 15000 | 7600 | 160 | 9.7 |  |  |
| CNC[C@@H](c1ccc(Cl)c(Cl)c1)[C@@H](O)c1ccsc1 [Compound 153] | 3.9 | 33.8 | 7.5 | 1600 | 20000 | 1400 |  |  | 9.5 |
| NC[C@H](c1ccc2ccccc2c1)[C@@H](O)c1ccncc1Cl [Compound 95] | 33.5 | 30.7 | 36.9 | 33000 | 11000 | 410 | 8 |  |  |
| CNCC(Cc1cccnc1)c1ccc2ccccc2c1 (stereo not drawn) [Compound 48] | 3.8 | 78 | 2.3 | 33000 | 15000 | 580 | 9.9 |  |  |
| CNC[C@@H](Cc1ccc(C)s1)c1ccc2ccccc2c1 [Compound 44] | 3.3 | 74.1 | 12.2 | 3300 | 8000 | 1000 | 10 |  |  |
| CNCC(Cc1ccccc1O)c1ccc2ccccc2c1 (stereo not drawn) [Compound 52] | 4.1 | 26.7 | 20.4 | 12000 | 20000 | 900 | 10 |  |  |
| CNC[C@H](c1ccc(Cl)c(Cl)c1)[C@@H](O)c1cccc(NC(C)=O)c1 [Compound 94] | 32.8 | 52.6 | 367 | 33000 | 18000 | 3000 | 9.4 |  |  |
| CNC[C@H](c1ccc2ccccc2c1)[C@H](OCC(=O)N1CCCC1)c1ccccc1 [Compound 50] | 3.8 | 36.5 | 2.9 | 17000 |  | 800 | 9.6 |  |  |
| CN1CCO[C@H](c2ccccc2)[C@@H](c2ccc3ccccc3c2)C1 [Compound 77] | 12.4 | 44.7 | 3 | 4500 |  | 5700 | 8.2 |  |  |
| CNCC(c1ccc(F)c(Cl)c1)[C@H](O)c1ccccc1 (stereo partly drawn) [Compound 73] |  |  |  | 31000 | 20000 | 790 | 9.3 |  |  |
| CCCNC(=O)CO[C@H](c1ccccc1)[C@H](CNC)c1ccc2ccccc2c1 [Compound 29] | 2.4 | 37.2 | 1.1 | 11000 |  | 650 | 9.6 |  |  |
| CNCC(c1ccc2ccccc2c1)[C@H](CO)c1ccccc1 (single isomer, unassigned) [Compound 25] | 2.2 | 106 | 22.7 | 33000 |  | 320 | 9.9 |  |  |
| CNC[C@H](c1ccc2ccccc2c1)[C@H](OCC(=O)NC)c1ccccc1 [Compound 1] | 0.7 | 20.7 | 1.9 | 33000 |  | 1100 | 9.6 |  |  |
| c1ccc([C@@H]2OCCNC[C@H]2c2ccc3ccccc3c2)cc1 [Compound 64] | 7.2 | 9.4 | 11.3 | 20000 |  | 5100 | 9.3 |  |  |
| CNC[C@H](c1ccc2ccccc2c1)[C@H](OCC(=O)N(C)C)c1ccccc1 [Compound 33] | 2.7 | 13.2 | 1.4 | 33000 |  | 550 | 9.6 |  |  |
| CNC[C@H](C[C@H](O)c1ccccc1)c1ccc2ccccc2c1 [Compound 93] | 29.5 | 137 | 1.1 | 13000 |  | 1200 | 10.1 |  |  |
